Each structure is given as a SMILES string.

This assay relates to von Bezold-Jarisch reflex evoked by 5-HT. Description: Antagonism of the von Bezold-Jarisch reflex. The format is in vivo. As to conditions: anaesthetised rat; dose of 1µg/kg i.v. On the procedure:
The compounds were evaluated for antagonism of the von Bezold-Jarisch reflex evoked by 5-HT in the anaesthetised rat according to the following method:
Male rats 250-350g, were anaesthetised with urethane (1.25g/kg intraperitoneally) and blood pressure and heart rate recorded as described by Fozard J.R. et al., J. Cardiovasc. Pharmacol. 2, 229-245 (1980). A submaximal dose of 5-HT (usually 6µg/kg) was given repeatedly by the intravenous route and changes in heart rate quantified. Compounds were given intravenously and the concentration required to reduce the 5-HT-evoked response to 50% of the control response (ED₅₀) was then determined.

On to `CN1C2COCC1CC(NC(=O)c1nn(C)c3ccccc13)C2` (stereo not drawn) [Example E4, endo-N-(9-Methyl-9-aza-3-oxabicyclo[3.3.1]nonan-7-yl)-1-methyl-1H-indazol-3-carboxamide], for which the “activity (antagonism of the von Bezold-Jarisch reflex)” value is “active”.
To `COc1ccccc1NC(=O)NC1CC2COCC(C1)N2C` (stereo not drawn) [Example E3, endo-N-(9-Methyl-9-aza-3-oxabicyclo[3.3.1]nonan-7-yl)-N′-(2-methoxyphenyl)urea] belongs “active”.
For `CN1C2COCC1CC(NC(=O)N1CC(C)(C)c3ccccc31)C2` (stereo not drawn) [Example E5, endo-N-(9-Methyl-9-aza-3-oxabicyclo[3.3.1]nonan-7-yl)-3,3-dimethyl-1-indoline carboxamide], the “activity (antagonism of the von Bezold-Jarisch reflex)” value is “active”.

For the origin of these results see patent EP0377967A2, “9-Aza-3-(oxa/thia)-bicyclo[3,2,1]nonane derivatives, process and intermediates for their preparation and pharmaceutical compositions containing them” (BEECHAM GROUP PLC, priority 1988, dated 1990).
